In paper PMC9414676, “Experimental Studies Indicate That ST-2223, the Antagonist of Histamine H3 and Dopamine D2/D3 Receptors, Restores Social Deficits and Neurotransmission Dysregulation in Mouse Model of Autism” (Pharmaceuticals, 2022):

Key:
Type in all cases: in vivo
BTBR mice [1] = assay: Social approach test (SAT), sociability (novel mouse vs novel object)
Protocol: (§1) All the mice were randomly divided into nine groups of 5–7 mice each. The mice were injected intraperitonially once daily for 21 days with different doses of ST2223 (2.5, 5, and 10 mg/kg, i.p.), ARP 1 mg/kg or vehicle (1% DMSO in 0.9% normal saline). Group I, B6 mice were injected with vehicle served as control. Group II, BTBR mice were treated with vehicle. Groups III–V, BTBR mice received i.p. injections of different doses of ST2223 (2.5, 5, and 10 mg/kg, i.p.), respectively. Group VI, BTBR mice were injected with ARP (1 mg/kg, i.p.). For abrogation studies, Group VII, BTBR mice were treated with ST2223 (5 mg/kg, i.p.) along with RAM (10 mg/kg, i.p.). Group VIII, B6 mice were co-injected with vehicle and RAM (10 mg/kg, i.p). All treatments and vehicle (VEH) were administered 30–45 min before each behavioral test. The doses of these drugs were selected based on previous reports. Behavioral testing was performed between 9:00 am and 3:00 pm in an order randomized by group and in the following sequence: social approach test (SAT) and open field locomotor test (OFL). The chronic treatment started one week before the behavioral test and was continued for a total of 21 days as described above (Figure 7). Following behavioral tests, i.e., on day 21 of systemic treatment, five of the animals were sacrificed. The animals were deeply anesthetized with pentobarbital (40 mg/kg, i.p., body weight). To wash out the blood, cardiac perfusion was carried out using 0.01 M phosphate-buffered saline (PBS) at pH 7.4. The brains were quickly removed and placed on an ice plate, where the cerebellum, hippocampus, prefrontal cortex, and striatum were excised from the brain and snap-frozen in liquid nitrogen for later LC-MS/MS analysis.
The social approach test (SAT) was performed using an automated three-chamber device (EthoVision® Software, Noldus, The Netherlands) as previously described. The transparent polycarbonate chamber is rectangular and is composed of three interconnected partitions (homemade), which are separated by two sliding doors. In brief, after 10 min of habituation, the study mouse was placed in the central chamber with the doors opened, and the mouse was given the choice to interact with either an empty plastic cup located in one side chamber, referred to as a novel object (NO), or a similar plastic cup with an unfamiliar mouse inside it located in the opposite chamber, referred to as a novel mouse (NM), which was matched in age, sex, and strain with test mouse. To avoid innate side preferences, the plastic cup for NO and NM were randomly placed in either chamber and the placement was changed between studies and between mice. For 10 min, the test mouse was allowed to explore all three chambers and cups, and the time spent interacting with NO and NM (sniffing) was automatically recorded by EthoVision® Software. Immediately after this session, a novel mouse is kept in the empty cup and is referred to as novel mouse (NM), and the mouse in the other cup from the earlier session is referred to as familiar mouse (FM). The study mouse is allowed to explore the three chambers for 10 min, and the time spent for interacting with both mice was automatically recorded, to assess social novelty preference. Eight groups of 7 mice/group were used for the SAT. To allow the direct comparison of social behavior between the treated groups, the sociability index (SI) and social novelty index (SNI) were calculated with the following formula, as previously described: SI=(Time exploring NM−Time exploring NO)/(Time exploring NM+Time exploring NO) SNI=(Time exploring NM−Time exploring FM)/(Time exploring NM+Time exploring FM)

BTBR mice [2] = assay: Social approach test (SAT), social novelty preference (novel mouse vs familiar mouse); conditions: for preference to novel mouse (NM) over familiar mouse (FM) vs VEH-treated BTBR mice: p < 0.001
Protocol: as §1
The social approach test (SAT) was performed using an automated three-chamber device (EthoVision® Software, Noldus, The Netherlands) as previously described. The transparent polycarbonate chamber is rectangular and is composed of three interconnected partitions (homemade), which are separated by two sliding doors. […] For 10 min, the test mouse was allowed to explore all three chambers and cups, and the time spent interacting with NO and NM (sniffing) was automatically recorded by EthoVision® Software. […] The study mouse is allowed to explore the three chambers for 10 min, and the time spent for interacting with both mice was automatically recorded, to assess social novelty preference. […] To allow the direct comparison of social behavior between the treated groups, the sociability index (SI) and social novelty index (SNI) were calculated with the following formula, as previously described: SI=(Time exploring NM−Time exploring NO)/(Time exploring NM+Time exploring NO) SNI=(Time exploring NM−Time exploring FM)/(Time exploring NM+Time exploring FM)

BTBR mice [3] = assay: Open field locomotor test (OFL), anxiety-like behavior and locomotion
Protocol: as §1
Open field locomotor test (OFL) systematically assesses exploratory activity based on subjecting an animal to an unfamiliar environment whose escape is prevented by surrounding walls. It is a model of anxiety-like behavior, suitable for assessing motor activity as a reaction to an unknown environment, i.e., locomotion motivated by exploration. Both general locomotor activity and anxiety-related behaviors were assessed as the mice were placed individually inside an open field arena (45 × 45 × 30 cm) and were allowed to move freely for 10 min [80]. Mice were introduced into the center area of the arena (23 × 23 cm) and given 5 min habituation before actual behaviors recording. The overall distance moved inside the complete arena and time spent in the center and periphery was recorded for 10 min using CCD camera-assisted motion tracking equipment and software program (EthoVision 3.1, Noldus Information Technology, The Netherlands). Measurements obtained included total distance traveled and center and periphery time spent for […]. After each testing sessions, chambers we cleaned with 70% ethanol, and enough time was allowed for ethanol evaporation and odor dissipation. When evaluating the results, more time spent in the center indicated low levels of anxiety-like behaviors and total distance travelled represented locomotor activity.

[4] = ST-2223 5 mg/kg i.p. chronic, p < 0.05
[5] = ST-2223 10 mg/kg i.p. chronic, p < 0.05

Compound: COc1ccccc1N1CCN(CCCCNC(=O)c2ccc3cc(OCCCN4CCCCC4)ccc3c2)CC1 [ST-2223, N-(4-(4-(2-methoxyphenyl)piperazin-1-yl)butyl)-6-(3-(piperidin-1-yl)propoxy)-2-naphthamide]
- time spent with novel mouse (NM) vs novel object (NO) (BTBR mice [1]; ST-2223 2.5 mg/kg i.p. chronic, p = 0.48): unsuccessful to exert remarked improvement
- exploring time spent with NM vs VEH-treated BTBR mice (BTBR mice [1]; ST-2223 2.5 mg/kg i.p. chronic, p > 0.05): not a significant level
- exploring time spent with NM vs VEH-treated BTBR mice (BTBR mice [1]; ST-2223 5 mg/kg i.p. chronic, p < 0.001): significantly improved exploring time spent with NM
- time spent with novel mouse (NM) vs novel object (NO) (BTBR mice [1]; ST-2223 5 mg/kg i.p. chronic, p < 0.01): significantly enhanced time spent with the NM
- sociability index (SI) vs VEH-treated BTBR mice (BTBR mice [1]; [4]): significant improvement in sociability
- time spent with novel mouse (NM) vs novel object (NO) (BTBR mice [1]; ST-2223 10 mg/kg i.p. chronic, p = 0.53): unsuccessful to exert remarked improvement
- social novelty index (SNI) (BTBR mice [2]; ST-2223 5 mg/kg i.p. chronic, no significant difference to control B6): significantly improved social novelty performance
- preference to novel mouse (NM) over familiar mouse (FM) vs VEH-treated BTBR mice (BTBR mice [2]; ST-2223 5 mg/kg i.p. chronic): enhanced preference to stranger NM over FM
- preference to novel mouse (NM) over familiar mouse (FM) vs VEH-treated BTBR mice (BTBR mice [2]; ST-2223 10 mg/kg i.p. chronic): enhanced preference to stranger NM over FM
- time spent in the periphery (BTBR mice [3]; ST-2223 2.5 mg/kg i.p. chronic): no group differences
- time spent in the center of the open field (BTBR mice [3]; ST-2223 2.5 mg/kg i.p. chronic, p = 0.84): failed to decrease the time spent in the center of the arena to a significant level
- time spent in the center of the open field (BTBR mice [3]; [4]): significantly less time in the central compartment
- time spent in the periphery (BTBR mice [3]; [4]): significantly corrected the decreased time
- total distance travelled vs VEH-treated BTBR mice (BTBR mice [3]; [4]): significantly decreased the total distance travelled
- time spent in the periphery (BTBR mice [3]; ST-2223 10 mg/kg i.p. chronic): no group differences
- time spent in the center of the open field (BTBR mice [3]; [5]): significantly less time in the central compartment
- total distance travelled vs VEH-treated BTBR mice (BTBR mice [3]; [5]): significantly decreased the total distance travelled
